Reference: article PMC12442392, “Identification of a novel ipp gene cluster responsible for 2-isopropylphenol degradation in strain Rhodococcus sp. D-6” (Applied and Environmental Microbiology, 2025)
Positions count from the first letter of the chain named.

Legend:
IppB [1] = target: T1, IppB (Rhodococcus sp. D-6, UniProt A0AAU7V3K6, E120A, form not given); assay: enzyme activity assay; assay type: biochemical; settings: standard assay 200 µM substrate, 1.0 µM enzyme, 10 µM Fe^2+; 20 mM Tris-HCl pH 7.4, 30°C; Fe(II)-binding residue
T1 sequence (A0AAU7V3K6 1-190 E120A): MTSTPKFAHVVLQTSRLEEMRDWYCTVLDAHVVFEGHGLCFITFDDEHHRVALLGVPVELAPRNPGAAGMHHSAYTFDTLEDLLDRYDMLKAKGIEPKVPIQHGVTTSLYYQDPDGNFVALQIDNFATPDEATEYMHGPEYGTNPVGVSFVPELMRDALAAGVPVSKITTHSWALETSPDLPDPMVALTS

IppB [2] = target: T2, IppB (Rhodococcus sp. D-6, UniProt A0AAU7V3K6, H9A, form not given); assay: enzyme activity assay; assay type: biochemical; settings: standard assay 200 µM substrate, 1.0 µM enzyme, 10 µM Fe^2+; 20 mM Tris-HCl pH 7.4, 30°C; Fe(II)-binding residue
T2 sequence (A0AAU7V3K6 1-190 H9A): T1 sequence (A0AAU7V3K6 1-190 E120A) with H9A, A120E

IppB [3] = target: T3, IppB (Rhodococcus sp. D-6, UniProt A0AAU7V3K6); assay: Michaelis-Menten kinetics, nonlinear regression; assay type: biochemical; settings: 1.0 µM IppB, 10 µM Fe^2+; 20 mM Tris-HCl pH 7.4, 30°C; read-out: apparent Km
T3 sequence (A0AAU7V3K6 1-190): T1 sequence (A0AAU7V3K6 1-190 E120A) with A120E

IppB [4] = target: T4, IppB (Rhodococcus sp. D-6, UniProt A0AAU7V3K6, H72A, form not given); assay: enzyme activity assay; assay type: biochemical; settings: standard assay 200 µM substrate, 1.0 µM enzyme, 10 µM Fe^2+; 20 mM Tris-HCl pH 7.4, 30°C; Fe(II)-binding residue
T4 sequence (A0AAU7V3K6 1-190 H72A): T1 sequence (A0AAU7V3K6 1-190 E120A) with H72A, A120E

[5] = test system: T5, IppA1A2 (IppA1 with reductase component IppA2); assay: Michaelis-Menten kinetics, nonlinear regression; assay type: biochemical, Rhodococcus sp. D-6; settings: 250 µM NADH, 10 µM FAD, 1.2 µM IppA1, 0.4 µM IppA2; 20 mM Tris-HCl pH 7.4, 30°C; read-out: apparent Km
T5 construct: mixed at molar ratio 3:1 in assay; with 2-isopropylphenol monooxygenase, reductase component (flavin reductase)

| Km (IppB [3]) | Km [5] | SMILES | activity lost (no turnover) (IppB [1]) | activity lost (no turnover) (IppB [2]) | activity lost (no turnover) (IppB [4]) |
| --- | --- | --- | --- | --- | --- |
| 29.1 ± 1.54 µM | – | CC(C)c1cc(O)ccc1O [2-isopropylhydroquinone] | all variants lost their activity against 2-isopropylhydroquinone | all variants lost their activity against 2-isopropylhydroquinone | all variants lost their activity against 2-isopropylhydroquinone |
| – | 60.5 ± 1.27 µM | CC(C)c1ccccc1O [2-isopropylphenol] | – | – | – |
